Among the data in patent US20240174696A1, “2,8-DIAZASPIRO[4.5]DECANE COMPOUNDS” (Genentech, Inc., priority 2021, published 2024) are Ki and EC50 values, retold here.

SMILES strings stand for the structures. pEC50, pKi: −log10 of the molar value. Where a name gives a salt, the structure may show the parent alone. Some results are limits rather than exact numbers.

In assay [1] the target is Human LATS2 catalytic domain (Homo sapiens (Human), UniProt Q9NRM7). Put plainly: LATS2 High ATP HTRF Assay. The class given is biochemical. To be noted: no asterisk: LATS2 High ATP HTRF Assay, 5000 μM ATP, 0.05 nM LATS2. The procedure:
Human LATS2 catalytic domain which contains the amino acids G553-V1088 (accession NP_055387) was purified in-house. The LATS2 catalytic domain was co-purified with Mob1b (accession NP_775739). The LATS2 biochemical HTRF assay was performed using the HTRF KinEASE-STK S1 Kit (Cisbio, Cat #62ST1PEC), following the protocol from the manufacturer. Compounds were dispensed by the Echo Liquid Handler (Labcyte) into a white 384-well plate (PerkinElmer, Cat #6008289). 3 uL of 2×LATS2 enzyme solution was added to the compounds, following by a 10 minute incubation at room temperature. Then, 2×ATP and STK S1 peptide solution was added to initiate the one hour enzyme reaction at room temperature. The final condition of the reaction was 0.2 nM LATS2, 50 μM ATP, 0.5 μM STK S1 peptide in 50 mM HEPES pH7.2, 10 mM MgCl2, 0.1% BGG, 0.005% Brij-35, 1 mM DTT. The reaction was quenched by adding 6 uL of the detection mixture which contained Streptavidin XL665 and STK Antibody-Cryptate (Cisbio), incubate for 1 hour at room temperature. The HTRF (665 nm/620 nm) signal was read on the Envision plater reader (PerkinElmer). The IC50 values were determined by fitting the % inhibition with a nonlinear four-parameter logistical equation. The Ki values were calculated using the Cheng-Prusoff equation for a competitive inhibitor, IC50═Ki (1+S/Km)+M [E] with ATP Km for LATS2=105 μM.
The LATS2 high ATP HTRF assay was performed using the same protocol as the Standard LATS2 HTRF assay. The final condition of the reaction was 0.05 nM LATS2, 5000 μM ATP, 0.5 μM STK S1 peptide in 50 mM HEPES pH7.2, 10 mM MgCl2, 0.1% BGG, 0.005% Brij-35, 1 mM DTT and the 2 hours enzyme reaction at room temperature.

The subject of assay [2] is TAZ nuclear translocation in SW1990 cells. Put plainly: TAZ Nuclear Translocation Assay. The assay is classed as cell-based. To be noted: Homo sapiens, 4 hours. The protocol:
The SW1990 cells (ATCC, CRL2172) were seeded at 5000 cells/well by adding 30 μL/well of cells in RPMI1640, 10% FBS, 2 mM glutamine culture media to a 384-well plate (Greiner 781091). The cells were incubated overnight at 37° C. Next day, test compounds were directly added to the cells using the Echo Liquid Handler (Labcyte), incubate at 37° C. for 4 hours. The cells were fixed with 4% paraformaldehyde and incubate for 20 minutes at room temperature. After washing three times with 100 μL PBS, 0.5% Triton X-100 was added to permeabilize the cells, incubate at room temperature for 5 minutes, following by washing the cells three times with PBS. 3% BSA was added to the cells, incubate for one hour at room temperature, following by washing three times with PBS. 50 μL of 1:750 diluted rabbit Anti-TAZ (Cell signaling D316D) in 3% BSA was added to the cells, incubate at 4° C. overnight. Next day, after washing the cells three times with PBS, 50 μL of 1:1250 diluted donkey anti-Rabbit, Alexa Fluor 488 (Invitrogen A21206) and 1:6250 diluted Hoechst 33342 (Molecular Probes H-21492) in 3% BSA was added to the cells, incubate at room temperature for one hour. The cells were washed three times with PBS, then image with the CellInsight CX7 High-Content Imager. The ratio of nuclear mean fluorescence intensity and cytoplasmic ring region mean fluorescence intensity was calculated. The % inhibition was normalized using DMSO as 0% inhibition and an inhibitor control as 100% inhibition. The EC50 values were calculated by fitting the % inhibition with a nonlinear four-parameter logistical equation.

Human LATS2 catalytic domain, sequence (Q9NRM7 553-1088): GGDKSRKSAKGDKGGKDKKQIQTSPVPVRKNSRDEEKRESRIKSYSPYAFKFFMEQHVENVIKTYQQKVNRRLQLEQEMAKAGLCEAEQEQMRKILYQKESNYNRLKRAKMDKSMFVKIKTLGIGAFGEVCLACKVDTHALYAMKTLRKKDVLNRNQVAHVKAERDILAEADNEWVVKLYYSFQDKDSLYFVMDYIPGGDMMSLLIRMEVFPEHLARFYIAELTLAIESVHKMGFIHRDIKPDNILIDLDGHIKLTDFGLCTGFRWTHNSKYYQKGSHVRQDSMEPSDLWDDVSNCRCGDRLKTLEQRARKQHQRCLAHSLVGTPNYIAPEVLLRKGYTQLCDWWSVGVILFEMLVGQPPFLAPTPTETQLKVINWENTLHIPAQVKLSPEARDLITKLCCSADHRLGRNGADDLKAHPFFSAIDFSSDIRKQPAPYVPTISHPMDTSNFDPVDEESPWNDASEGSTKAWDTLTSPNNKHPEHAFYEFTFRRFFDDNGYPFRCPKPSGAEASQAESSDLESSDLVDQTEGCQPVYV
Human LATS2 catalytic domain, sequence (Q7L9L4 whole entry partner, the tested form may be a part): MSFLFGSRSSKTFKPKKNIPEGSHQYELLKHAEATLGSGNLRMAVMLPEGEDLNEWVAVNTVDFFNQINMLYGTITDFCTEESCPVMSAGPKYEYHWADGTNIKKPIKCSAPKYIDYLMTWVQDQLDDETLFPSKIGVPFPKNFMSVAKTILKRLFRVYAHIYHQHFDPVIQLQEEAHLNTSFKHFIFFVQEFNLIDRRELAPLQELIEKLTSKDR

Take `COc1cncc2nc(-c3ccncc3)nc(N3CCC4(CCNC4)CC3)c12` [Example 233, 5-Methoxy-2-(pyridin-4-yl)-4-(2,8-diazaspiro[4.5]decan-8-yl)pyrido[3,4-d]pyrimidine]: the pKi (commonly the Ki on a negative log10 scale, so that one unit is a factor of ten) in assay [1] is 10.55. Moreover, the pEC50 (as a rule, the negative decadic logarithm of the EC50, by convention in mol/L) in assay [2] was 6.59.

In assay [1], `NS(=O)(=O)CCN1CCC2(CCN(c3nc(-c4ccncc4)nc4cnccc34)CC2)C1` [Compound 109, 2-(8-(2-(pyridin-4-yl)pyrido[3,4-d]pyrimidin-4-yl)-2,8-diazaspiro[4.5]decan-2-yl)ethanesulfonamide] showed a pKi of 10.37. The pEC50 in assay [2] is 5.42.

Molecule `CNc1cc2c(N3CCC4(CCN(C)C4)CC3)nc(-c3ccncc3)nc2cn1` [Example 214, N-methyl-4-(2-methyl-2,8-diazaspiro[4.5]decan-8-yl)-2-(pyridin-4-yl)pyrido[3,4-d]pyrimidin-6-amine] gave a pKi in assay [1] of 8.00. The pEC50 in assay [2] is 6.07.

`Cc1n[nH]cc1-c1nc(N2CCC3(CCNC3)CC2)c2ccnc(Cl)c2n1` [Example 232, 8-chloro-2-(3-methyl-1H-pyrazol-4-yl)-4-(2,8-diazaspiro[4.5]decan-8-yl)pyrido[3,4-d]pyrimidine]: in assay [1], the pKi is 10.21. The molecule further had a pEC50 in assay [2] of 5.37.

With `Cc1n[nH]c(C)c1-c1nc(N2CCC3(CCNC3)CC2)c2ccncc2n1` [Compound 241, 2-(3,5-Dimethyl-1H-pyrazol-4-yl)-4-(2,8-diazaspiro[4.5]decan-8-yl)pyrido[3,4-d]pyrimidine], in assay [1], the pKi is 8.85. In assay [2], this molecule gave a pEC50 of less than 5.00.

In the case of `Cc1n[nH]cc1-c1nc(N2CCC3(CCN(C[C@@H](C)O)C3)CC2)c2ccncc2n1` (single isomer, unassigned) [Compound 145], the pKi in assay [1] is 10.41. Besides, in assay [2], the pEC50 is 6.03.

As for `COc1cncc2nc(-c3ccncc3)nc(N3CCC4(CCN(CC(F)F)C4)CC3)c12` [Compound 280, 4-(2-(2,2-difluoroethyl)-2,8-diazaspiro[4.5]decan-8-yl)-5-methoxy-2-(pyridin-4-yl)pyrido[3,4-d]pyrimidine], the pKi in assay [1] was 10.41. Besides, in assay [2], the pEC50 is 6.24.

For `Cc1n[nH]cc1-c1nc(N2CCC3(CCN(CC4COC4)C3)CC2)c2ccncc2n1` [Compound 152, 2-(3-methyl-1H-pyrazol-4-yl)-4-(2-(oxetan-3-ylmethyl)-2,8-diazaspiro[4.5]decan-8-yl)pyrido[3,4-d]pyrimidine], the pKi in assay [1] was 10.28. Also, in assay [2], the pEC50 was 6.08.

For the molecule `Cc1[nH]ncc1-c1nc(N2CCC3(CC2)CCN([C@@H]2CC[C@H]2O)C3)c2ccncc2n1` (single isomer, unassigned) [Example 228], the pKi in assay [1] was 10.17. The pEC50 in assay [2] is 5.57.

`O[C@@H]1CC[C@H]1N1CCC2(CCN(c3nc(-c4ccncc4)nc4cnccc34)CC2)C1` (single isomer, unassigned) [Compound 179] showed a pKi in assay [1] of 10.00. The molecule also had a pEC50 in assay [2] of 6.13.

`O[C@@H]1CC[C@H](N2CCC3(CCN(c4nc(-c5ccncc5)nc5cnccc45)CC3)C2)C1` (single isomer, unassigned) [Compound 170] gave a pKi in assay [1] of 9.54. The pEC50 in assay [2] was 6.42.

The molecule `COCC1CC2(CCN(c3nc(-c4ccncc4)nc4cncc(OC)c34)CC2)CN1` (centres unmarked) [Compound 276, 5-methoxy-4-(3-(methoxymethyl)-2,8-diazaspiro[4.5]decan-8-yl)-2-(pyridin-4-yl)pyrido[3,4-d]pyrimidine] gave a pKi in assay [1] of 9.72. Further, in assay [2], the pEC50 is 6.39.

In assay [1], `Cc1n[nH]cc1-c1nc(N2CCC3(CCN(C)C3)CC2)c2cc(Cn3cc(Cl)cn3)ncc2n1` [Compound 190, 6-((4-chloro-1H-pyrazol-1-yl)methyl)-2-(3-methyl-1H-pyrazol-4-yl)-4-(2-methyl-2,8-diazaspiro[4.5]decan-8-yl)pyrido[3,4-d]pyrimidine] showed a pKi of 10.59. Also, the pEC50 in assay [2] was 6.96.

Consider `c1cc(-c2nc(N3CCC4(CC3)CC3COCCN3C4)c3ccncc3n2)ccn1` (racemic) [Example 218, 1-(2-(pyridin-4-yl)pyrido[3,4-d]pyrimidin-4-yl)hexahydrospiro[piperidine-4,7′-pyrrolo[2,1-c][1,4]oxazine]], for which the pKi in assay [1] is 8.37. The same molecule gave a pEC50 in assay [2] of 5.17.

Turning to `Cc1n[nH]cc1-c1nc(N2CCC3(CC2)CCN([C@@H]2CCC[C@H]2O)C3)c2ccncc2n1` (single isomer, unassigned) [Compound 184], the pKi in assay [1] was 10.43. This molecule gave a pEC50 in assay [2] of 5.85.

In turn, `COc1cncc2nc(-c3ccncc3)nc(N3CCC4(CCN(CC5COC5)C4)CC3)c12` [Compound 255, 5-Methoxy-4-(2-(oxetan-3-ylmethyl)-2,8-diazaspiro[4.5]decan-8-yl)-2-(pyridin-4-yl)pyrido[3,4-d]pyrimidine] showed a pKi in assay [1] of 10.47. The pEC50 in assay [2] was 6.85.

Take `Cc1[nH]ncc1-c1nc(N2CCC3(CC2)CCN([C@H]2CCC[C@@H]2O)C3)c2ccncc2n1` (single isomer, unassigned) [Compound 185]: the pKi in assay [1] is 10.33. This molecule also showed a pEC50 in assay [2] of 6.07.

Consider `Cc1cc2c(N3CCC4(CCNC4)CC3)nc(-c3c[nH]nc3C)nc2cn1` [Compound 160, 6-methyl-2-(3-methyl-1H-pyrazol-4-yl)-4-(2,8-diazaspiro[4.5]decan-8-yl)pyrido[3,4-d]pyrimidine], for which the pKi in assay [1] is 8.69. This molecule gave a pEC50 in assay [2] of less than 5.00.

In assay [1], `CC(C)N1CCC2(CCN(c3nc(-c4ccncc4)nc4cnccc34)CC2)C1` [Compound 117, 4-(2-isopropyl-2,8-diazaspiro[4.5]decan-8-yl)-2-(pyridin-4-yl)pyrido[3,4-d]pyrimidine] showed a pKi of 9.39. Also, in assay [2], the negative-log EC50 (pEC50) was 5.80.

In assay [1], `Fc1cnccc1-c1nc(N2CCC3(CCNC3)CC2)c2ccncc2n1` [Compound 182, 2-(3-fluoropyridin-4-yl)-4-(2,8-diazaspiro[4.5]decan-8-yl)pyrido[3,4-d]pyrimidine] showed a pKi of 8.65. The molecule also gave a pEC50 in assay [2] of 5.57.

In the case of `C#CCCN1CCC2(CCN(c3nc(-c4ccncc4)nc4cnccc34)CC2)C1` [Compound 256, 4-(2-(but-3-yn-1-yl)-2,8-diazaspiro[4.5]decan-8-yl)-2-(pyridin-4-yl)pyrido[3,4-d]pyrimidine], the pKi in assay [1] is 9.72. In assay [2], this molecule showed a pEC50 of 6.33.

Consider `COc1cncc2nc(-c3ccncc3)nc(N3CCC4(CCN(C)C4)CC3)c12` [Compound 252, 5-Methoxy-4-(2-methyl-2,8-diazaspiro[4.5]decan-8-yl)-2-(pyridin-4-yl)pyrido[3,4-d]pyrimidine formate], for which the pEC50 in assay [2] was 6.89.

In assay [1], `O[C@H]1CC[C@@H]1N1CCC2(CCN(c3nc(-c4ccncc4)nc4cnccc34)CC2)C1` (single isomer, unassigned) [Compound 178] had a negative logarithm of the Ki (pKi) of 9.01.

In assay [1], `CC(=O)N1CC(Oc2cncc3nc(-c4ccncc4)nc(N4CCC5(CCN(C)C5)CC4)c23)C1` [Compound 278, 1-(3-((4-(2-Methyl-2,8-diazaspiro[4.5]decan-8-yl)-2-(pyridin-4-yl)pyrido[3,4-d]pyrimidin-5-yl)oxy)azetidin-1-yl)ethan-1-one] had a negative logarithm of the Ki (pKi) of 7.96.

In turn, `Cc1n[nH]cc1-c1nc(N2CCC3(CCNC3)CC2)c2ccnc(O)c2n1` [Example 237, 2-(3-methyl-1H-pyrazol-4-yl)-4-(2,8-diazaspiro[4.5]decan-8-yl)pyrido[3,4-d]pyrimidin-8-ol] had a pKi in assay [1] of 7.72.

Molecule `FC(F)(F)Cc1nccc2c(N3CCC4(CCNC4)CC3)nc(-c3ccncc3)nc12` [Compound 192, 2-(pyridin-4-yl)-4-(2,8-diazaspiro[4.5]decan-8-yl)-8-(2,2,2-trifluoroethyl)pyrido[3,4-d]pyrimidine] gave a pKi in assay [1] of 8.86.
